Experimental data from the supplement of paper PMC10307832.

Assays:
Test in all cases: relative viability (nuclei count vs DMSO), 5 days (fraction); higher = more cells survive
[1] = compound: C(C(=O)C(=O)O)Br [Bromopyruvate] + CS(=O)(=O)CCNCc1ccc(-c2ccc3ncnc(Nc4ccc(OCc5cccc(F)c5)c(Cl)c4)c3c2)o1 [Lapatinib] (partner 2 µM)
How it was run: (§1)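 Lung cancer cell lines were seeded in 1536-well plates and dosed by pin tool the next day, with either a single drug or a fixed anchor-drug dose combined with five library-drug doses (not always all listed) spaced in √10 steps. Five days later, one step fixed the cells and stained their nuclei (final 0.05% Triton X-100, 1% formaldehyde, 1 ug/ml Hoechst), and nuclei were counted on 4× images. Relative viability is the nuclei count in treated wells divided by the count in vehicle wells, and each value is the median of duplicate plates.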

[2] = compound: C(C(=O)C(=O)O)Br [Bromopyruvate] + O=C(c1cc(Cc2n[nH]c(=O)c3ccccc23)ccc1F)N1CCN(C(=O)C2CC2)CC1 [Olaparib] (partner 8 µM)
How it was run: as §1

[3] = compound: C(C(=O)C(=O)O)Br [Bromopyruvate] + Cc1cc(Nc2cc(N3CCN(C)CC3)nc(Sc3ccc(NC(=O)C4CC4)cc3)n2)n[nH]1 [Tozasertib] (partner 0.1 µM)
How it was run: as §1

[4] = compound: C(C(=O)C(=O)O)Br [Bromopyruvate] + CC(C)C[C@H](NC(=O)[C@H](Cc1ccccc1)NC(=O)c1cnccn1)B(O)O [Bortezomib] (partner 0.002 µM)
How it was run: as §1

Cell Line | relative viability ([1]; first compound 1 µM) | relative viability ([1]; first compound 3.162 µM) | relative viability ([1]; first compound 10 µM) | relative viability ([1]; first compound 31.62 µM) | relative viability ([1]; first compound 100 µM) | relative viability ([2]; first compound 1 µM) | relative viability ([2]; first compound 3.162 µM) | relative viability ([2]; first compound 10 µM) | relative viability ([2]; first compound 31.62 µM) | relative viability ([2]; first compound 100 µM) | relative viability ([3]; first compound 1 µM) | relative viability ([3]; first compound 3.162 µM) | relative viability ([3]; first compound 10 µM) | relative viability ([3]; first compound 31.62 µM) | relative viability ([3]; first compound 100 µM) | relative viability ([4]; first compound 1 µM) | relative viability ([4]; first compound 3.162 µM) | relative viability ([4]; first compound 10 µM) | relative viability ([4]; first compound 31.62 µM) | relative viability ([4]; first compound 100 µM)
NCI-H1650 | 0.765 | 0.69 | 0.75 | 0.81 | 0.815 | 0.82 | 0.734 | 0.723 | 0.71 | 0.567 | 0.441 | 0.489 | 0.362 | 0.504 | 0.241 | 0.196 | 0.194 | 0.209 | 0.255 | 0.19
BEN | 0.617 | 0.649 | 0.744 | 0.777 | 0.649 | 0.96 | 0.994 | 1.46 | 1.03 | 0.99 | 0.556 | 0.558 | 0.426 | 0.499 | 0.402 | 0.897 | 0.724 | 0.78 | 0.836 | 0.682
EMC-BAC-2 | 0.832 | 0.922 | 1 | 0.833 | 0.912 | 0.499 | 0.481 | 0.408 | 0.516 | 0.458 | 0.295 | 0.289 | 0.317 | 0.267 | 0.314 | 0.99 | 1.14 | 1.2 | 1.02 | 1.12
NCI-H2170 | 0.25 | 0.284 | 0.277 | 0.246 | 0.293 | 0.626 | 0.556 | 0.625 | 0.576 | 0.56 | 0.689 | 0.708 | 0.798 | 0.761 | 0.868 | – | – | – | – | –
NCI-H1299 | 0.952 | 0.991 | 0.973 | 0.961 | 0.958 | 0.937 | 0.951 | 0.963 | 0.979 | 0.882 | – | – | – | – | – | 0.973 | 1.02 | 1.06 | 0.956 | 1
EBC-1 | 0.225 | 0.21 | 0.226 | 0.205 | 0.221 | 0.691 | 0.594 | 0.741 | 0.617 | 0.564 | – | – | – | – | – | 0.527 | 0.67 | 0.56 | 0.574 | 0.511
NCI-H441 | – | – | – | – | – | 0.604 | 0.538 | 0.643 | 0.564 | 0.602 | 0.597 | 0.614 | 0.605 | 0.615 | 0.565 | 0.37 | 0.549 | 0.481 | 0.548 | 0.459
NCI-H2342 | – | – | – | – | – | 0.477 | 0.367 | 0.376 | 0.377 | 0.344 | 0.594 | 0.616 | 0.433 | 0.483 | 0.412 | – | – | – | – | –
NCI-H1792 | 0.949 | 0.972 | 1.06 | 0.674 | 0.835 | 0.0016 | 0.469 | 0.532 | 0.582 | 0.68 | – | – | – | – | – | 1.01 | 0.932 | 1.11 | 0.879 | 0.915
ChaGo-K-1 | – | – | – | – | – | 0.417 | 0.466 | 0.431 | 0.344 | 0.301 | 0.234 | 0.263 | 0.247 | 0.216 | 0.205 | 1.08 | 1.02 | 1.01 | 1.07 | 0.953
LK-2 | 0.936 | 0.88 | 0.871 | 0.967 | 0.826 | 0.827 | 0.816 | 0.815 | 0.591 | 0.717 | 0.171 | 0.169 | 0.174 | 0.179 | 0.177 | – | – | – | – | –
NCI-H1944 | 0.826 | 0.903 | 0.932 | 0.7 | 0.869 | 0.395 | 0.432 | 0.429 | 0.419 | 0.402 | 0.224 | 0.266 | 0.243 | 0.283 | 0.273 | – | – | – | – | –
NCI-H1793 | 0.593 | 1.11 | 0.674 | 0.842 | 0.59 | 0.841 | 0.95 | 0.925 | 0.921 | 0.89 | 0.371 | 0.421 | 0.36 | 0.391 | 0.204 | – | – | – | – | –
A549 | 1.03 | 1.05 | 1.14 | 1.08 | 1 | – | 0.286 | 0.403 | 0.356 | 0.3 | – | – | – | – | – | – | – | – | – | –
NCI-H358 | 0.435 | 0.449 | 0.482 | 0.483 | 0.451 | 0.591 | 0.687 | 0.628 | 0.565 | 0.535 | 0.0956 | 0.115 | 0.104 | 0.0945 | 0.0906 | – | – | – | – | –
NCI-H1563 | 0.88 | 1.1 | 0.902 | 0.888 | 0.938 | – | – | – | – | – | – | – | – | – | – | 0.859 | 0.925 | 0.868 | 0.789 | 0.943
NCI-H1395 | 1.07 | 0.928 | 1.07 | 0.919 | 0.976 | 0.447 | 0.452 | 0.476 | 0.52 | 0.443 | 0.757 | 0.788 | 0.834 | 0.718 | 0.751 | – | – | – | – | –
SW 900 | – | – | – | – | – | 0.892 | 0.874 | 0.936 | 0.8 | 0.821 | 0.54 | 0.455 | 0.44 | 0.564 | 0.514 | – | – | – | – | –
IA-LM | 0.772 | 0.86 | 0.527 | 0.816 | 0.617 | 0.839 | 0.857 | 0.855 | 0.98 | 0.941 | – | – | – | – | – | 0.872 | 0.835 | 0.908 | 0.835 | 0.64
NCI-H1703 | 1.14 | 1.35 | 1.39 | 1.15 | 1.22 | 0.648 | 0.418 | 0.335 | 0.633 | 0.502 | – | – | – | – | – | 0.369 | 0.244 | 0.366 | 0.315 | 0.543
LCLC-103H | – | – | – | – | – | 0.744 | 0.773 | 0.752 | 0.848 | 0.809 | 0.515 | 0.446 | 0.466 | 0.466 | 0.544 | 1.05 | 0.998 | 1.06 | 1.08 | 1.16
NCI-H1648 | – | – | – | – | – | 0.731 | 0.92 | 0.978 | 1.11 | 0.982 | 0.514 | 0.573 | 0.412 | 0.522 | 0.613 | – | – | – | – | –
